Test results from US20260317374A1, “Carrier Peptide Fragment and Use Thereof” (TOAGOSEI CO., LTD., priority 2022, published 2026).
FAM = 5(6)-carboxyfluorescein

Tested on: NSC-34 cells (mouse motor neuron-like hybrid cell line)
Assay: Cell membrane permeability of sample in NSC-34 cells by flow cytometry
Format: cell-based
Conditions: for median fluorescence intensity (MFI): 10 μM sample (FAM concentration 10 μM), 0.5% DMSO, 20 hours at 37° C., 5% CO2, detector FL2
Description: In Example 1, a construct shown in Table 1 was prepared as a sample 1. Specifically, a construct formed of a synthetic peptide with the amino acid sequence set forth in SEQ ID No.: 1, in which an α-amino group of a lysine residue of an N-terminus is acetylated, and FAM (C21H12O7: 5(6)-carboxyfluorescein, molecular weight 376.3, excitation wavelength 495 nm, fluorescence wavelength 520 nm) corresponding to fluorescent dye bonded to the C-terminus of the synthetic peptide was prepared. The construct was diluted in dimethyl sulfoxide (DMSO) to prepare a sample solution 1 with a sample concentration of 2 mM.
As the eukaryotic cells, NSC-34 cells (mouse motor neuron-like hybrid cell line) were used and the cell membrane permeability of the sample 1 was evaluated. In Example 1, the prepared sample solution 1 was used, and in Example 2, the FAM solution was used.
The NSC-34 cell was cultured in 10% fetal bovine serum (FBS)-containing Dulbecco's modified Eagle's medium (DMEM (Cat No. 044-29765, manufactured by FUJIFILM Wako Pure Chemical Corporation)), which is a culture medium.
The NSC-34 cell that adhered to a culture plate was cleaned with PBS and then, a 0.25%-trypsin/EDTA solution was added thereto, and incubation was performed for three minutes at 37° C. After the incubation, the aforementioned 10% FBS-containing DMEM was added to deactivate trypsin and then, five-minute centrifugal separation was performed at 150×g to precipitate the cells. After the supernatant generated by the centrifugal separation was removed, the 10% FBS-containing DMEM was added to the precipitate (cell pellet) to prepare a cell suspension of about 1×10^5 cells/mL. The cell suspension was added by 1 mL to a well of a commercially available six-hole (well) plate (manufactured by AGC TECHNO GLASS Co., Ltd.) so as to seed the cell (about 1×10^5 cells/well). In addition, the 2 mM sample solution 1 was diluted with the 10% FBS-containing DMEM to prepare the sample solution 1 in which the concentration of the sample 1 was 20 μM. Then, 1 mL of the 20 μM sample solution 1 was added to the well (that is, so that the concentration of the sample 1 became […] and the DMSO concentration became 0.5% in the culture solution in the well). After that, the cell was incubated for 20 hours at 37° C. under a 5% CO2 condition.
After the 20-hour incubation, the culture supernatant was removed from the well and the cells in the well were cleaned twice with 1 mL of PBS. Next, 100 μL of the 0.25% trypsin/EDTA solution was added to the well and the incubation was performed for three minutes at 37° C. After the incubation, 900 µL of the 10% FBS-containing DMEM was added to the well to deactivate the trypsin. Subsequently, the cell suspension in the well was transferred to a tube and the cells were collected. After that, pre-washing was performed additionally, so that the cells remaining in the well were collected in the tube. This tube was subjected to five-minute centrifugal separation at 4° C. under a condition of 210×g. After the centrifugal separation, the supernatant was removed and the precipitate (cell pellet) was suspended (cleaned) with 1 mL of PBS, which was followed by the centrifugal separation under the same condition as that described above. […]
Regarding the obtained cells (cell pellet), the cell membrane permeability of the sample 1 was analyzed using a flow cytometer. […]

Substance | median fluorescence intensity (MFI) | histogram position (flow cytometer, FIG. 1) (Example 1 compared to Example 2 (FAM), 20 hours) | cell membrane permeability (construct vs FAM alone, FIG. 1) | cell membrane permeability of carrier peptide fragment (concluded from the FAM construct (Example 1 vs Example 2))
5(6)-carboxyfluorescein [Example 2, reference compound] | 7.58 | – | – | –
Example 1: synthetic peptide of SEQ ID No.: 1 with N-terminal lysine α-amino group acetylated and FAM bonded to the C-terminus (Ac-KFRAQRRW-{FAM}) | 15.8 | shifted to the right side compared to the histogram according to Example 2 | higher cell membrane permeability than FAM alone | –
SEQ ID No.: 1: carrier peptide fragment; synthetic peptide with amino acid sequence KFRAQRRW | – | – | – | achieves the cell membrane permeability
